Assay results as given in US11524966B1 (Valo Early Discovery, Inc., priority 2017, dated 2022).

Target: T1, USP28 (USP28-5(1-1077)-TEV-6*His; LifeSensors) (Homo sapiens, UniProt Q96RU2)
T1 construct: construct USP28 (USP28-5(1-1077)-TEV-6*His; LifeSensors); TEV cleavage site (C); 6xHis (C); purchased LifeSensors
T1 sequence (Q96RU2 1-1077): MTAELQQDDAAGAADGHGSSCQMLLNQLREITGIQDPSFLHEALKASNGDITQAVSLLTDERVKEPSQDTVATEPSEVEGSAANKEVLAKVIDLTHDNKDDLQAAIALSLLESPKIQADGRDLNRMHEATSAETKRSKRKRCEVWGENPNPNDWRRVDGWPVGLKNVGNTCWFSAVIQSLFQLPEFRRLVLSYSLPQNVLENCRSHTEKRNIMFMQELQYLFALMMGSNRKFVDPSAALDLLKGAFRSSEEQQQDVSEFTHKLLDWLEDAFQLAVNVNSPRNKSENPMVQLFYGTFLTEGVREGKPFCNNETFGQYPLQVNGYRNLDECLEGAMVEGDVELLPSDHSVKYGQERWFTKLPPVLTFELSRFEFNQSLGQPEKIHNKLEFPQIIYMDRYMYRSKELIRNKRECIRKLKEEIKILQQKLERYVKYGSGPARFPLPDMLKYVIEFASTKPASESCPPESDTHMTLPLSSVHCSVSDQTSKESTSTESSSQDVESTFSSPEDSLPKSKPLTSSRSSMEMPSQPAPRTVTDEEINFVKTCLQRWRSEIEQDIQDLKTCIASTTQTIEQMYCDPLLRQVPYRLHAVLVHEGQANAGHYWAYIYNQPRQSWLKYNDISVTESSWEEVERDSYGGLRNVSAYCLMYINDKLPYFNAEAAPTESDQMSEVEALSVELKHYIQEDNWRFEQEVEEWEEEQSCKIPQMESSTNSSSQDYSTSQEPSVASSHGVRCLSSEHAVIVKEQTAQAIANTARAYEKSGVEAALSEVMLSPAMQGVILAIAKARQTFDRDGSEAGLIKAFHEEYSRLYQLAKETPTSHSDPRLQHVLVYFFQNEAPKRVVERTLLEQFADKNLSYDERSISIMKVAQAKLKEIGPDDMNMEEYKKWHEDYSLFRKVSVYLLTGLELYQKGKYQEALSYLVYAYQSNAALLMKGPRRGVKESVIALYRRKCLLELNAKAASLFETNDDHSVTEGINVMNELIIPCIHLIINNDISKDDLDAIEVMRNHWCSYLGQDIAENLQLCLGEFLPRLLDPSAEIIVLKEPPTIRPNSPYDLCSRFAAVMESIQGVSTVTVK
Assay: Ubiquitin-Rhodamine 110 Assay for USP28 Activity, Example A-1(b)
Type: biochemical
Settings: Ubiquitin-Rhodamine 110 assay, Example A-1(b)
Method in brief: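 Single-point screening used 10 μM compound with 90 min room-temperature incubation; follow-up dose-responses (25 μM top, 3-fold) used 75 pM USP28 1-1077 construct, 30 min compound preincubation, 25 nM Ub-Rh110, 20 min reaction, citric acid quench. Rh110 fluorescence normalised to no-enzyme and DMSO controls; IC50 from 4-parameter logistic fit.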

Row | SMILES | USP28 A-1(b) IC50 range
1 | Cc1cnc2c(N)c(C(=O)N[C@H]3COc4cc(N5CC6CCC(C5)N6)c(F)cc4C3)sc2n1 (single isomer, unassigned) [Example 40] | +++ (0.05-0.2 μM)
2 | Cc1cnc2c(N)c(C(=O)N[C@@H]3COc4cc(N5CC6CCC(C5)N6)c(F)cc4C3)sc2n1 (single isomer, unassigned) [Example 41] | + (>2 μM)
3 | CCc1cnc2sc(C(=O)N[C@H]3COc4cc(N5CCNCC5)ccc4C3)c(N)c2n1 [Example 36, (R)-7-amino-2-ethyl-N-(7-(piperazin-1-yl)chroman-3-yl)thieno[2,3-b]pyrazine-6-carboxamide] | ++ (0.2-2 μM)
4 | CCc1cnc2sc(C(=O)N[C@@H]3COc4cc(N5CCNCC5)ccc4C3)c(N)c2n1 [Example 37, (S)-7-amino-2-ethyl-N-(7-(piperazin-1-yl)chroman-3-yl)thieno[2,3-b]pyrazine-6-carboxamide] | + (>2 μM)
5 | O=C(N[C@H]1COc2cc(N3CCNCC3)ccc2C1)c1cnc2c(ccn2C(F)F)c1 [Example 38, (R)-1-(difluoromethyl)-N-(7-(piperazin-1-yl)chroman-3-yl)-1H-pyrrolo[2,3-b]pyridine-5-carboxamide] | + (>2 μM)
6 | O=C(N[C@@H]1COc2cc(N3CCNCC3)ccc2C1)c1cnc2c(ccn2C(F)F)c1 [Example 39, (S)-1-(difluoromethyl)-N-(7-(piperazin-1-yl)chroman-3-yl)-1H-pyrrolo[2,3-b]pyridine-5-carboxamide] | + (>2 μM)
7 | Cc1ccc2c(N)c(C(=O)N[C@H]3COc4cc(N5C[C@H]6CNC[C@@H]6C5)ccc4C3)sc2n1 [Example 43, 3-amino-N-((R)-7-((3aR,6aR)-hexahydropyrrolo[3,4-c]pyrrol-2(1H)-yl)chroman-3-yl)-6-methylthieno[2,3-b]pyridine-2-carboxamide] | + (>2 μM)
8 | Cc1ccc2c(N)c(C(=O)N[C@@H]3COc4cc(N5C[C@H]6CNC[C@@H]6C5)ccc4C3)sc2n1 [Example 44, 3-amino-N-((S)-7-((3aR,6aR)-hexahydropyrrolo[3,4-c]pyrrol-2(1H)-yl)chroman-3-yl)-6-methylthieno[2,3-b]pyridine-2-carboxamide] | + (>2 μM)
9 | Nc1c(C(=O)N[C@H]2COc3cc(N4CCNCC4)ccc3C2)sc2nc(C3CC3)sc12 [Example 45] | ++ (0.2-2 μM)
10 | Cc1nc2sc(C(=O)N[C@@H]3COc4cc(N5CC6CCC(C5)N6)c(F)cc4C3)c(N)c2s1 [Example 46, N-((3S)-7-(3 8-diazabicyclo[3.2.1]octan-3-yl)-6-fluorochroman-3-yl)-6-amino-2-methylthieno[2,3-d]thiazole-5-carboxamide] | ++ (0.2-2 μM)
11 | Cc1nc2sc(C(=O)N[C@H]3COc4cc(N5CC6CCC(C5)N6)c(F)cc4C3)c(N)c2s1 [Example 47, N-((3R)-7-(3,8-diazabicyclo[3.2.1]octan-3-yl)-6-fluorochroman-3-yl)-6-amino-2-methylthieno[2,3-d]thiazole-5-carboxamide] | + (>2 μM)
12 | Cc1ccc2c(N)c(C(=O)N[C@H]3COc4cc(N5CCNCC5)cc(Cl)c4C3)sc2n1 [Example 48, (R)-3-amino-N-(5-chloro-7-(piperazin-1-yl)chroman-3-yl)-6-methylthieno[2,3-b]pyridine-2-carboxamide] | +++ (0.05-0.2 μM)
13 | Cc1ccc2c(N)c(C(=O)N[C@@H]3COc4cc(N5CCNCC5)cc(Cl)c4C3)sc2n1 [Example 49, (S)-3-amino-N-(5-chloro-7-(piperazin-1-yl)chroman-3-yl)-6-methylthieno[2,3-b]pyridine-2-carboxamide] | + (>2 μM)
14 | O=C(N[C@H]1COc2cc(N3CC4CCC(C3)N4)ccc2C1)c1cnc2c(c1)CCCN2 [Example 50, N-((3R)-7-(3,8-diazabicyclo[3.2.1]octan-3-yl)chroman-3-yl)-5,6,7,8-tetrahydro-1,8-naphthyridine-3-carboxamide] | ++ (0.2-2 μM)
15 | O=C(N[C@H]1COc2cc(N3CC4CCC(C3)N4)ccc2C1)c1cnc2c(c1)CCCO2 [Example 51, N-((3R)-7-(3,8-diazabicyclo[3.2.1]octan-3-yl)chroman-3-yl)-3,4-dihydro-2H-pyrano[2,3-b]pyridine-6-carboxamide] | + (>2 μM)
16 | O=C(N[C@H]1COc2cc(N3CCNCC3)ccc2C1)c1ccc(NCc2ccccc2)nc1 [Example 52, (R)-6-(benzylamino)-N-(7-(piperazin-1-yl)chroman-3-yl)nicotinamide] | + (>2 μM)
17 | C[C@H](Nc1ccc(C(=O)N[C@H]2COc3cc(N4CCNCC4)ccc3C2)cn1)c1ccccc1 [Example 53, 6-(((S)-1-phenylethyl)amino)-N-((R)-7-(piperazin-1-yl)chroman-3-yl)nicotinamide] | + (>2 μM)
18 | C[C@@H](Nc1ccc(C(=O)N[C@H]2COc3cc(N4CCNCC4)ccc3C2)cn1)c1ccccc1 [Example 54, 6-(((R)-1-phenylethyl)amino)-N-((R)-7-(piperazin-1-yl)chroman-3-yl)nicotinamide] | + (>2 μM)
19 | Cc1ccc2c(N)c(C(=O)N[C@H]3COc4c(F)c(N5CCNCC5)cc(F)c4C3)sc2n1 [Example 55, (R)-3-amino-N-(5,8-difluoro-7-(piperazin-1-yl)chroman-3-yl)-6-methylthieno[2,3-b]pyridine-2-carboxamide] | ++++ (0.001-0.05 μM)
20 | Cc1nc2sc(C(=O)N[C@H]3COc4c(F)c(N5CCNCC5)cc(F)c4C3)c(N)c2s1 [Example 56, (R)-6-amino-N-(5,8-difluoro-7-(piperazin-1-yl)chroman-3-yl)-2-methylthieno[2,3-d]thiazole-5-carboxamide] | +++ (0.05-0.2 μM)
21 | O=C(N[C@H]1COc2cc(N3CCNCC3)ccc2C1)c1cnc2c(c1)CC[C@H]2O [Example 57, (R)-7-hydroxy-N-((R)-7-(piperazin-1-yl)chroman-3-yl)-6,7-dihydro-5H-cyclopenta[b]pyridine-3-carboxamide] | + (>2 μM)
22 | O=C(N[C@H]1COc2cc(N3CCNCC3)ccc2C1)c1cnc2c(c1)CC[C@@H]2O [Example 58, (S)-7-hydroxy-N-((R )-7-(piperazin-1-yl)chroman-3-yl)-6,7-dihydro-5H-cyclopenta[b]pyridine-3-carboxamide] | + (>2 μM)
23 | O=C(N[C@H]1COc2cc(N3CCNCC3)ccc2C1)c1cnc2c(ccn2Cc2ccccc2)c1 [Example 59, (R)-1-benzyl-N-(7-(piperazin-1-yl)chroman-3-yl)-1H-pyrrolo[2,3-b]pyridine-5-carboxamide] | +++ (0.05-0.2 μM)
24 | Cc1cnc2c(N)c(C(=O)N[C@H]3COc4c(C#N)c(N5CCNCC5)cc(F)c4C3)sc2n1 [Example 60, (R)-7-amino-N-(8-cyano-5-fluoro-7-(piperazin-1-yl)chroman-3-yl)-3-methylthieno[2,3-b]pyrazine-6-carboxamide] | ++ (0.2-2 μM)
25 | Cc1ccc2c(N)c(C(=O)N[C@H]3COc4cc(N5CCNCC5)c(F)c(F)c4C3)sc2n1 [Example 61, (R)-3-amino-N-(5,6-difluoro-7-(piperazin-1-yl)chroman-3-yl)-6-methylthieno[2,3-b]pyridine-2-carboxamide] | +++ (0.05-0.2 μM)
26 | Cc1ccc2c(N)c(C(=O)N[C@H]3COc4cc([C@H]5CCNC[C@H]5O)ccc4C3)sc2n1 [Example 62, 3-amino-N-((R)-7-((3S,4R)-3-hydroxypiperidin-4-yl)chroman-3-yl)-6-methylthieno[2,3-b]pyridine-2-carboxamide] | ++++ (0.001-0.05 μM)
27 | Cc1ccc2c(N)c(C(=O)N[C@H]3COc4cc([C@@H]5CCNC[C@@H]5O)ccc4C3)sc2n1 [Example 63, 3-amino-N-((R)-7-((3R,4S)-3-hydroxypiperidin-4-yl)chroman-3-yl)-6-methylthieno[2,3-b]pyridine-2-carboxamide] | +++ (0.05-0.2 μM)
